Results taken from PubChem BioAssay AID1845207 (Molecular Pharmacology Branch, DTP, NCI, 2023).

Test system: NCI-H1876 tumor spheroid viability
Assay: Anticancer human tumor NCI-H1876 cell line growth inhibition;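 also: spheroids exposed to compounds for seven days before the viability read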;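 as to viability, T/C: percent of DMSO vehicle control viability so 100% = vehicle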
Details: spheroids with HUVEC and MSC; for IC50: curve of first compound; for viability, T/C: stronger effect = lower value
Text: Multicellular complex tumor spheroid response to DNA repair inhibitors in combination with DNA-damaging drugs
This study explores the anticancer activities of DNA-damaging drugs and inhibitors of DNA damage repair, both as single agents and in combinations. Complex tumor spheroids comprised of malignant cells, endothelial cells and mesenchymal stem cells served as an in vitro model for human solid tumors. This model system incorporates physiologically relevant features and patient-derived or established malignant cell lines with clinically relevant genetic alterations from many tumor types. Twenty-six patient-derived or established malignant cell lines were evaluated representing sarcoma, melanoma, small cell lung cancer (SCLC), non-small cell lung cancer (NSCLC), as well as bladder, ovarian and pancreatic cancers. The concentration ranges selected for each drug and investigational agent were based upon clinically achievable concentrations if the clinical Cmax of the agent was known.
Compounds. The drugs and compounds olaparib (NSC753686), talazoparib (NSC767125), berzosertib (NSC777718), elimusertib (NSC800525), nedisertib (NSC802822), VX-984 (NSC792969), AZD-1390 (NSC803789), temozolomide (NSC362856), topotecan (NSC609699), trabectedin (NSC813783), staurosporine (NSC755774), and gemcitabine (NSC613327) were obtained from the National Cancer Institute (NCI) Developmental Therapeutics Program Chemical Repository. The FDA-approved anticancer drug set is available from the Developmental Therapeutics Program at https://dtp.cancer.gov/organization/dscb/obtaining/available_plates.htm. […] The stock solutions were prepared in dimethyl sulfoxide (DMSO, Sigma-Aldrich, St. Louis, MO, cat. D2650) at 400-fold the tested concentration and stored at -70 degrees C. Prior to their use, the stock solutions were diluted in fresh medium and the final DMSO concentration in the assay was 0.25% (v/v). All drugs and investigational agents were tested over a range starting from a high concentration at or near the clinical Cmax and decreasing in half-log increments. If the clinical Cmax for an agent had not been determined, the highest concentration tested was 10 microM.
Cell Lines. The patient-derived cancer cell (PDC) lines: 156681-154-R-J1-PDC, 283228-195-R-J1-PDC, 287954-098-R-J1-PDC, 292921-168-R-J2-PDC, 349418-098-R-PDC, 425362-245-T-J1-PDC, 556581-035-R-J1-PDC, and BL0293-F563-PDC were received from the NCI Patient-Derived Models Repository (PDMR, https://pdmr.cancer.gov). The established cell lines HS-SY-2 (RRID:CVCL_8719), MPNST, and SYO-1 (RRID:CVCL_7146) were obtained from the Sloan Kettering Institute. The alveolar soft parts sarcoma cell line ASPS-1 (RRID:CVCL_S738) was established at the NCI and grown from internal seed stocks. The following established cell lines were purchased from the American Type Culture Collection (ATCC, Manassas, VA): G-401 (ATCC, cat. CRL-1441, RRID:CVCL_0270), SW982 (ATCC, cat. HTB-93, RRID:CVCL_1734), VA-ES-BJ (ATCC, cat. CRL-2138, RRID:CVCL_1785), NCI-H719 (ATCC, cat. CRL-5837, RRID:CVCL_1582), NCI-H196 (ATCC, cat. CRL-5823, RRID:CVCL_1509), NCI-H841 (ATCC, cat. CRL-5845, RRID:CVCL_1595), NCI-H1618 (ATCC, cat. CRL-5879, RRID:CVCL_1480), NCI-H1876 (ATCC, cat. CRL-5902, RRID:CVCL_1503), DMS 114 (ATCC, cat. CRL-2066; RRID:CVCL_1174), NCI-H211 (ATCC, cat. CRL-5824; RRID:CVCL_1529), and SW 1271 (ATCC, cat. CRL-2177, RRID:CVCL_1716). The small cell lung cancer cell line COR-L88 was purchased from Sigma-Aldrich (cat. 92031917-1VL, RRID:CVCL_1141). The non-small cell lung cancer cell lines NCI-H226 (RRID:CVCL_1544) and NCI-H322M (RRID:CVCL_1557) were established at the NCI and grown from internal seed stocks. Pooled donor human umbilical vein endothelial cells (HUVEC, Lonza, cat. CC-2519) and human mesenchymal stem cells (hMSC, Lonza, cat. PT-2501) were purchased from Lonza (Walkersville, MD).
Cell Culture. All cells were maintained in an incubator at 37 degrees C and 5% CO2 with 95% humidity. […]

[1] = second compound 0.003 µM, first compound 0.0949 µM
[2] = second compound 0.003 µM, first compound 0.3 µM
[3] = second compound 0.003 µM, first compound 0.949 µM
[4] = second compound 0.003 µM, first compound 3 µM
[5] = second compound 0.00949 µM, first compound 0.0949 µM
[6] = second compound 0.00949 µM, first compound 0.3 µM
[7] = second compound 0.00949 µM, first compound 0.949 µM
[8] = second compound 0.00949 µM, first compound 3 µM
[9] = second compound 0.03 µM, first compound 0.0949 µM
[10] = second compound 0.03 µM, first compound 0.3 µM
[11] = second compound 0.03 µM, first compound 0.949 µM
[12] = second compound 0.03 µM, first compound 3 µM
[13] = second compound 0.0949 µM, first compound 0.0949 µM
[14] = second compound 0.0949 µM, first compound 0.3 µM
[15] = second compound 0.0949 µM, first compound 0.949 µM
[16] = second compound 0.0949 µM, first compound 3 µM
[17] = second compound 0.3 µM, first compound 0.0949 µM
[18] = second compound 0.3 µM, first compound 0.3 µM
[19] = second compound 0.3 µM, first compound 0.949 µM
[20] = second compound 0.3 µM, first compound 3 µM

Question: How did the IC50 (second compound 0.003 µM) turn out when `Cc1sc2c(c1C)C(c1ccc(Cl)cc1)=NC(CC(=O)Nc1ccc(O)cc1)c1nnc(C)n1-2` (stereo not given) + CC[C@@]1(O)C(=O)OCc2c1cc1n(c2=O)Cc2cc3c(CN(C)C)c(O)ccc3nc2-1 was run?
Answer: The IC50 was 0.0318 µM.

Question: And the IC50 (second compound 0.00949 µM)?
Answer: The IC50 was < 0.00949 µM.

Question: And the IC50 (second compound 0.03 µM)?
Answer: The IC50 was < 0.00949 µM.

Question: And the IC50 (second compound 0.0949 µM)?
Answer: The IC50 was < 0.00949 µM.

Question: What about the IC50 (second compound 0.3 µM) of the same compound?
Answer: The IC50 was < 0.00949 µM.

Question: What about the viability, T/C (second compound 0.003 µM, first compound 0.00949 µM) of the same compound?
Answer: Its viability, T/C is 70.7%.

Question: What about the viability, T/C (second compound 0.003 µM, first compound 0.03 µM) of the same compound?
Answer: Its viability, T/C is 52.3%.

Question: And the viability, T/C [1]?
Answer: Its viability, T/C is 25.6%.

Question: And the viability, T/C [2]?
Answer: Its viability, T/C is 15.8%.

Question: And the viability, T/C [3]?
Answer: The viability, T/C was 8.93%.

Question: What about the viability, T/C [4] of the same compound?
Answer: Its viability, T/C is 5.64%.

Question: What about the viability, T/C (second compound 0.00949 µM, first compound 0.00949 µM) of the same compound?
Answer: Its viability, T/C is 30.6%.

Question: And the viability, T/C (second compound 0.00949 µM, first compound 0.03 µM)?
Answer: Its viability, T/C is 46.8%.

Question: What about the viability, T/C [5] of the same compound?
Answer: Its viability, T/C is 16.6%.

Question: What about the viability, T/C [6] of the same compound?
Answer: The viability, T/C was 12.2%.

Question: And the viability, T/C [7]?
Answer: The viability, T/C was 7.36%.

Question: And the viability, T/C [8]?
Answer: Its viability, T/C is 5.57%.

Question: What about the viability, T/C (second compound 0.03 µM, first compound 0.00949 µM) of the same compound?
Answer: The viability, T/C was 12.2%.

Question: What about the viability, T/C (second compound 0.03 µM, first compound 0.03 µM) of the same compound?
Answer: The viability, T/C was 30%.

Question: And the viability, T/C [9]?
Answer: Its viability, T/C is 12.2%.

Question: What about the viability, T/C [10] of the same compound?
Answer: The viability, T/C was 10.8%.

Question: What about the viability, T/C [11] of the same compound?
Answer: The viability, T/C was 5.27%.

Question: And the viability, T/C [12]?
Answer: The viability, T/C was 4.32%.

Question: And the viability, T/C (second compound 0.0949 µM, first compound 0.00949 µM)?
Answer: Its viability, T/C is 7.77%.

Question: And the viability, T/C (second compound 0.0949 µM, first compound 0.03 µM)?
Answer: The viability, T/C was 8.11%.

Question: And the viability, T/C [13]?
Answer: The viability, T/C was 8.71%.

Question: What about the viability, T/C [14] of the same compound?
Answer: Its viability, T/C is 7.87%.

Question: And the viability, T/C [15]?
Answer: Its viability, T/C is 5.5%.

Question: And the viability, T/C [16]?
Answer: The viability, T/C was 4%.

Question: And the viability, T/C (second compound 0.3 µM, first compound 0.00949 µM)?
Answer: The viability, T/C was 3.46%.

Question: And the viability, T/C (second compound 0.3 µM, first compound 0.03 µM)?
Answer: Its viability, T/C is 3.69%.

Question: What about the viability, T/C [17] of the same compound?
Answer: The viability, T/C was 3.67%.

Question: And the viability, T/C [18]?
Answer: The viability, T/C was 3.02%.

Question: And the viability, T/C [19]?
Answer: Its viability, T/C is 2.65%.

Question: What about the viability, T/C [20] of the same compound?
Answer: The viability, T/C was 1.56%.

Question: What does the source list for `O=C(c1cc(Cc2n[nH]c(=O)c3ccccc23)ccc1F)N1CCN(C(=O)C2CC2)CC1` + CC[C@@]1(O)C(=O)OCc2c1cc1n(c2=O)Cc2cc3c(CN(C)C)c(O)ccc3nc2-1?
Answer: IC50 (second compound 0.003 µM): 0.325 µM; IC50 (second compound 0.00949 µM): < 0.0949 µM; IC50 (second compound 0.03 µM): < 0.0949 µM; IC50 (second compound 0.0949 µM): < 0.0949 µM; IC50 (second compound 0.3 µM): < 0.0949 µM; viability, T/C [1]: 60.1%; viability, T/C [2]: 49.8%; viability, T/C [3]: 41.9%; viability, T/C [4]: 30.9%; viability, T/C (second compound 0.003 µM, first compound 9.49 µM): 22%; viability, T/C (second compound 0.003 µM, first compound 30 µM): 16%; viability, T/C [5]: 21.2%; viability, T/C [6]: 21%; viability, T/C [7]: 19.2%; viability, T/C [8]: 20.6%; viability, T/C (second compound 0.00949 µM, first compound 9.49 µM): 35.5%; viability, T/C (second compound 0.00949 µM, first compound 30 µM): 15.7%; viability, T/C [9]: 12.3%; viability, T/C [10]: 12.6%; viability, T/C [11]: 13.7%; viability, T/C [12]: 23.3%; viability, T/C (second compound 0.03 µM, first compound 9.49 µM): 18.2%; viability, T/C (second compound 0.03 µM, first compound 30 µM): 14.3%; viability, T/C [13]: 35.7%; viability, T/C [14]: 7.72%; viability, T/C [15]: 8.21%; viability, T/C [16]: 10%; viability, T/C (second compound 0.0949 µM, first compound 9.49 µM): 12.8%; viability, T/C (second compound 0.0949 µM, first compound 30 µM): 14.4%; viability, T/C [17]: 4.06%; viability, T/C [18]: 3.8%; viability, T/C [19]: 4.04%; viability, T/C [20]: 5.04%; viability, T/C (second compound 0.3 µM, first compound 9.49 µM): 13.5%; viability, T/C (second compound 0.3 µM, first compound 30 µM): 9.66%
